From patent publication US20120141589A1, “PARTICLES FOR DRUG DELIVERY AND OTHER APPLICATIONS” (BASF SE, priority 2010, published 2012)

Assays:
[1] = Dissolution test of drug/CaCO3 hybrid particles against raw drug crystals, flow-through UV-Vis; assay type: physicochemical; conditions: drug in CaCO3 hybrid particles; 10 mM SDS, pH 1.5 (HCl), 37° C., sink conditions, monitored at 290 nm
Experimental: In this example, the dissolution rates of the particles were determined, and compared to compared with raw, micron-sized drug crystals.
During the dissolution experiments, for convenience, dissolution media was placed in a dissolution chamber which is typically used for pressure dialysis; no pressure was applied for the measurements described here. The vessel used in these experiments contained a built-in stir bar and the dissolution media was stirred at a rate of approximately one revolution per second. Dissolution media was drawn from the bottom of the vessel, through a 0.1 micron PTFE filter. The media vessel was connected to a flow-through UV-Vis spectrophotometer cell via tubing and the liquid was driven using a peristaltic pump. A flow rate of 8 mL per second was used. The output of the flow-through cell was connected back to the dissolution chamber, so that the flow formed a closed loop; in this manner the volume of the dissolution media was conserved.
All water used was distilled and de-ionized. […] The raw drug powder was not ground. […] All dissolution media was kept at 37° C.

[2] = no UV-vis signal detectable in pure water or acidic water with added HCl
Experimental: All water used was distilled and de-ionized. These drugs were monitored at a wavelength of 290 nm. Templates were prepared for dissolution testing by grinding pellets in a mortar and pestle into a fine powder. The raw drug powder was not ground. All tests were performed under sink conditions, where the total amount of drug added is less than one third of the saturation concentration. All dissolution media was kept at 37° C.

| Compound | dissolution rate when incorporated into a hybrid structure, compared with raw, micron-sized drug crystals [1] | solubility in water [2] |
| --- | --- | --- |
| Clc1ccccc1C(c1ccccc1)(c1ccccc1)n1ccnc1 [chlotrimazole] | enhanced dissolution rates | poorly soluble in water |
| C[C@]12CC[C@@H]3c4ccc(O)cc4CC[C@H]3[C@@H]1CC[C@@H]2O [estradiol, 17-beta estradiol] | enhanced dissolution rates | – |
